# pKi: −log10 of the molar value.
# Molecular target: T1, Human Recombinant Matriptase 2 (Homo sapiens, UniProt Q8IU80)
# T1 construct: made in house
# T1 sequence (Q8IU80 1-811): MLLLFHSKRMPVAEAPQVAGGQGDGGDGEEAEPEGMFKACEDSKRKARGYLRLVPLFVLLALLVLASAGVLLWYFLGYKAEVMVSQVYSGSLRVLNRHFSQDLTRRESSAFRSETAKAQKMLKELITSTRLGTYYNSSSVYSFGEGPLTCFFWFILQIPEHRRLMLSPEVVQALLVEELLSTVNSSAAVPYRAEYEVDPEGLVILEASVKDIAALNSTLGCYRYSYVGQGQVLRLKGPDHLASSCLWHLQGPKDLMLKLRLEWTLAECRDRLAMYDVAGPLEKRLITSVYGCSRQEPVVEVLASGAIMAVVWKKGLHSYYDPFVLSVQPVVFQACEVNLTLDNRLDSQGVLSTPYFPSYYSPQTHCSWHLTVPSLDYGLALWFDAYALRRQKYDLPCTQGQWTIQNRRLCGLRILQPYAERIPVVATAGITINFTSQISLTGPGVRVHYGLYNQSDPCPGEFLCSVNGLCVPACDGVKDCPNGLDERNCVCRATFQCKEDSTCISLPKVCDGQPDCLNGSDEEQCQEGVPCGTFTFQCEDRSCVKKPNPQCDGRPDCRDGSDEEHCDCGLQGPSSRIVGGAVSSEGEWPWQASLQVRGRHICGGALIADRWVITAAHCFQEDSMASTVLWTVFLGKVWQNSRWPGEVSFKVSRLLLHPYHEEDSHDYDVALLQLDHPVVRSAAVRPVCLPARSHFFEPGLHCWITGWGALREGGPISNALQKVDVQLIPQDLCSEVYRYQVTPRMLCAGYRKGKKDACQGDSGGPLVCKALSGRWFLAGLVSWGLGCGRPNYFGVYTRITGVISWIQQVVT
# Test: Matriptase 2 inhibition, fluorescence based assay (Method I)
# Assay type: biochemical
# Details: Table A; Ki of Matriptase-2; read-out: Mat-2 Ki
# How it was run: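 In-house recombinant enzyme (3.5 nM), preincubated 30 min with compound, then Boc-Gln-Ala-Arg-AMC substrate (62 μM) in 50 mM Tris pH 7.5, 150 mM NaCl, 0.01% gelatin, 1% DMSO, 25 °C. Fluorescence (Ex 360/Em 480 nm) read 60 min after substrate; IC50 from variable-slope sigmoidal fit of % inhibition.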
row,Structure (SMILES),pKi
1,"NCc1ccc2cc(C(=O)OCCn3cnnn3)n(Cc3cc(NS(=O)(=O)Cc4ccccc4)cc4ccccc34)c2n1 [Compound 86, 2-(1H-1,2,3,4-tetrazol-1-yl)ethyl 6-(amino-methyl)-1-{[3-(phenyl-methanesulfonamido)-naphthalen-1-yl]methyl}-1H-pyrrolo[2,3-b]pyr-idine-2-carboxylate]",6.30 to 7.00
2,"CC(C)n1cnc(COC(=O)c2cc3ccc(CN)nc3n2Cc2cc(NS(=O)(=O)Cc3ccccc3)cc3ccccc23)c1 [Compound 87, [1-(propan-2-yl)-1H-imidazol-4-yl]methyl 6-(aminomethyl)-1-{[3-(phenylmethanesulfon-amido)naphthalen-1-yl]-methyl}-1H-pyrrolo[2,3-b]pyridine-2-carboxylate]",6.30 to 7.00
3,"Cc1oc(=O)oc1COC(=O)c1cc2ccc(CN)nc2n1Cc1cc(NS(=O)(=O)Cc2ccccc2)cc2ccccc12 [Compound 88, (5-methyl-2-oxo-2H-1,3-dioxol-4-yl)methyl 6-(aminomethyl)-1-{[3-(phenylmethanesulfon-amido)naphthalen-1-yl]-methyl}-1H-pyrrolo[2,3-b]pyridine-2-carboxylate]",6.30 to 7.00
4,"CC(C)n1ccc(COC(=O)c2cc3ccc(CN)nc3n2Cc2cc(NS(=O)(=O)Cc3ccccc3)cc3ccccc23)n1 [Compound 90, [1-(propan-2-yl)-1H-pyrazol-3-yl]methyl 6-(aminomethyl)-1-{[3-(phenylmethanesulfon-amido)naphthalen-1-yl]-methyl}-1H-pyrrolo[2,3-b]pyridine-2-carboxylate]",6.30 to 7.00
5,"NCCOC(=O)c1cc2ccc(CN)nc2n1Cc1cc(NS(=O)(=O)Cc2ccccc2)cc2ccccc12 [Compound 91, 2-aminoethyl 6-(amino-methyl)-1-{[3-(phenyl-methanesulfonamido)naphthalen-1-yl]methyl}-1H-pyrrolo[2,3-b]pyr-idine-2-carboxylate]",6.30 to 7.00
6,"NCc1ccc2cc(C(=O)OCCn3ccnn3)n(Cc3cc(NS(=O)(=O)Cc4ccccc4)cc4ccccc34)c2n1 [Compound 92, 2-(1H-1,2,3-triazol-1-yl-ethyl 6-(aminomethyl)-1-{[3-(phenylmethane-sulfonamido)naphthalen-1-yl]methyl}-1H-pyrrolo-[2,3-b]pyridine-2-carbox-ylate]",6.30 to 7.00
7,"NCc1ccc2cc(C(=O)OCCn3ccnc3)n(Cc3cc(NS(=O)(=O)Cc4ccccc4)cc4ccccc34)c2n1 [Compound 93, 2-(1H-imidazol-1-yl)-ethyl 6-(aminomethyl)-1-{[3-(phenylmethanesul-fonamido)naphthalen-1-yl]methyl}-1H-pyrrolo-[2,3-b]pyridine-2-car-boxylate]",6.30 to 7.00
8,"NCc1ccc2cc(C(=O)OCCNC(N)=O)n(Cc3cc(NS(=O)(=O)Cc4ccccc4)cc4ccccc34)c2n1 [Compound 94, 2-(carbamoylamino)-ethyl 6-(aminomethyl)-1-{[3-(phenylmethanesul-fonamido)naphthalen-1-yl]methyl}-1H-pyrrolo-[2,3-b]pyridine-2-carbox-ylate]",6.30 to 7.00
9,"COCCOC(=O)c1cc2ccc(CN)nc2n1Cc1cc(NS(=O)(=O)Cc2ccccc2)cc2ccccc12 [Compound 95, 2-methoxyethyl 6-(aminomethyl)-1-{[3-(phenylmethanesulfon-amido)naphthalen-1-yl]-methyl}-1H-pyrrolo[2,3-b]pyridine-2-carboxylate]",6.30 to 7.00
10,"CC(C)(C)n1cnc(COC(=O)c2cc3ccc(CN)nc3n2Cc2cc(NS(=O)(=O)Cc3ccccc3)cc3ccccc23)c1 [Compound 96, (1-tert-butyl-1H-imid-azol-4-yl)methyl 6-(aminomethyl)-1-{[3-(phenylmethanesulfon-amido)naphthalen-1-yl]-methyl}-1H-pyrrolo[2,3-b]pyridine-2-carboxylate]",6.30 to 7.00
11,NCc1ccc2cc(C(=O)OCCn3cncn3)n(Cc3cc(NS(=O)(=O)Cc4ccccc4)cc4ccccc34)c2n1 [Compound 97],6.30 to 7.00
12,"NCc1ccc2cc(C(=O)OCc3ccncc3)n(Cc3cc(NS(=O)(=O)Cc4ccccc4)cc4ccccc34)c2n1 [Compound 100, (pyridin-4-yl)methyl 6-(aminomethyl)-1-{[3-(phenylmethanesulfon-amido)naphthalen-1-yl]-methyl}-1H-pyrrolo[2,3-b]pyridine-2-carboxylate]",6.30 to 7.00
13,"NCc1ccc2cc(C(=O)OCc3cn(CC(F)(F)F)cn3)n(Cc3cc(NS(=O)(=O)Cc4ccccc4)cc4ccccc34)c2n1 [Compound 101, [1-(2,2,2-trifluoroethyl)-1H-imidazol-4-yl]methyl 6-(aminomethyl)-1-{[3-(phenylmethanesulfon-amido)naphthalen-1-yl]-methyl}-1H-pyrrolo[2,3-b]pyridine-2-carboxylate]",6.30 to 7.00
14,"NCc1ccc2cc(C(=O)OCCC3CCOCC3)n(Cc3cc(NS(=O)(=O)Cc4ccccc4)cc4ccccc34)c2n1 [Compound 102, 2-(oxan-4-yl)ethyl 6-(aminomethyl)-1-{[3-(phenylmethanesulfon-amido)naphthalen-1-yl]-methyl}-1H-pyrrolo[2,3-b]pyridine-2-carboxylate]",6.30 to 7.00
15,"NCc1ccc2cc(C(=O)OCc3cncn3CC(F)(F)F)n(Cc3cc(NS(=O)(=O)Cc4ccccc4)cc4ccccc34)c2n1 [Compound 103, [1-(2,2,2-trifluoroethyl)-1H-imidazol-5-yl]methyl 6-(aminomethyl)-1-{[3-(phenylmethanesulfon-amido)naphthalen-1-yl]-methyl}-1H-pyrrolo[2,3-b]pyridine-2-carboxylate]",6.30 to 7.00
16,"CC(C)(C)n1cncc1CCOC(=O)c1cc2ccc(CN)nc2n1Cc1cc(NS(=O)(=O)Cc2ccccc2)cc2ccccc12 [Compound 104, 2-(1-tert-butyl-1H-imid-azol-5-yl)ethyl 6-(amino-methyl)-1-{[3-(phenyl-methanesulfonamido)-naphthalen-1-yl]methyl}-1H-pyrrolo[2,3-b]pyr-idine-2-carboxylate]",6.30 to 7.00
17,"NCc1ccc2cc(C(=O)OCCF)n(Cc3cc(NS(=O)(=O)Cc4ccccc4)cc4ccccc34)c2n1 [Compound 105, 2-fluoroethyl 6-(amino-methyl)-1-{[3-(phenyl-methanesulfonamido)-naphthalen-1-yl]methyl}-1H-pyrrolo[2,3-b]pyr-idine-2-carboxylate]",6.30 to 7.00
18,"CC(C)(C)n1ccc(COC(=O)c2cc3ccc(CN)nc3n2Cc2cc(NS(=O)(=O)Cc3ccccc3)cc3ccccc23)n1 [Compound 106, (1-tert-butyl-1H-pyrazol-3-yl)methyl 6-(amino-methyl)-1-{[3-(phenyl-methanesulfonamido)-naphthalen-1-yl]methyl}-1H-pyrrolo[2,3-b]pyr-idine-2-carboxylate]",6.30 to 7.00
19,"NCc1ccc2cc(C(=O)OCC3CCN(CC(F)F)CC3)n(Cc3cc(NS(=O)(=O)Cc4ccccc4)cc4ccccc34)c2n1 [Compound 107, [1-(2,2-difluoroethyl)-piperidin-4-yl]methyl 6-(aminomethyl)-1-{[3-(phenylmethanesulfon-amido)naphthalen-1-yl]-methyl}-1H-pyrrolo[2,3-b]pyridine-2-carboxylate]",6.30 to 7.00
20,"CN(c1cc(Cn2c(C(=O)O)cc3ccc(CN)nc32)c2ccccc2c1)S(=O)(=O)Cc1ccccc1 [Compound 109, 6-(aminomethyl)-1-{[3-(N-methylphenylmeth-anesulfonamido)naph-thalen-1-yl]methyl}-1H-pyrrolo[2,3-b]pyridine-2-carboxylic acid]",6.30 to 7.00
21,CC(C)(C)n1nccc1COC(=O)c1cc2ccc(CN)nc2n1Cc1cc(NS(=O)(=O)Cc2ccccc2)cc2ccccc12 [Compound 110],6.30 to 7.00

# Source: patent US20240400553A1, “AMINE BASED MATRIPTASE 2 INHIBITORS AND USES THEREOF” (Disc Medicine, Inc., priority 2023, published 2024)
